Data reported in patent publication US20240279710A1, “FLUORESCENT PROBES” (TOHOKU TECHNO ARCH CO., LTD., priority 2021, published 2024).

Experiments:
SH-SY5Y cells = test: Live cell imaging of calpain activity in SH-SY5Y cells; type: cell-based; conditions: 5 μM probe, 10 minutes incubation, confocal microscope; FIG. 12
Protocol: Whether or not the improvement in enzymatic reactivity between the compound of the present invention and a calpain confirmed by the above-mentioned experiment remained the same even in a cell was verified. Calpain activity imaging in SH-SY5Y cells was performed on each of Compounds 16 and 19. Specifically, the SH-SY5Y cells (American Type Culture Collection, VA, USA) were cultured in a mixed medium of Dulbecco's modified eagle medium and Ham's F-12 medium (DMEM/F-12; Thermo Fisher Scientific, Inc.) (containing 10% fetal bovine serum (FBS; Thermo Fisher Scientific, Inc., MA, USA) and 100 U/mL penicillin-100 μg/mL streptomycin (PS; Thermo Fisher Scientific, Inc.)) under the conditions of 37° C. and 5% CO2-95% air. 6×10^4 to 8×10^4 Cells/well of the cells were seeded in a multiwell plate (μ-Plate 96 Well; ibidi, Grafelfing, Germany) coated with poly-D-lysine (Thermo Fisher Scientific, Inc.) and laminin (BD Biosciences, CA, USA), and were preincubated in a culture solution. Immediately after the removal of the culture solution in the wells, 200 μL of an assay solution (a culture solution containing a 5 μM probe) was added thereto, and the cells were incubated under the conditions of 37° C. and 5% CO2-95% air. 10 Minutes after that, a bright field image and a fluorescence image were taken with a confocal microscope (LSM 710, Carl Zeiss AG, Oberkochen, Germany).
Calpain activity imaging in SH-SY5Y cells was performed on each of Compounds 20 to 23, Compound 38, and Compound 56 in the same manner as in Example 9. In the case of each of Compounds 20 to 23 and Compound 38, a bright field image and a fluorescence image were taken after 30 minutes of incubation of the cells, and in the case of Compound 56, such images were taken after 20 minutes of incubation thereof.

[1] = target: T1, calpain-1 from human erythrocytes (Homo sapiens, UniProt P07384); test: Fluorescence assay with calpain-1; type: biochemical; conditions: 10 μM probe, 17.4 U/mL calpain-1, 5 mM CaCl2, 37° C., excitation 475 nm, fluorescence 500-550 nm; for increase in fluorescence intensity 10 minutes after the addition of calpain-1: FIG. 5(b)
T1 construct: calpain-1 from human erythrocytes; purchased Merck Millipore 208713; host or cells: human erythrocytes (natural source)
T1 sequence (P07384 1-714): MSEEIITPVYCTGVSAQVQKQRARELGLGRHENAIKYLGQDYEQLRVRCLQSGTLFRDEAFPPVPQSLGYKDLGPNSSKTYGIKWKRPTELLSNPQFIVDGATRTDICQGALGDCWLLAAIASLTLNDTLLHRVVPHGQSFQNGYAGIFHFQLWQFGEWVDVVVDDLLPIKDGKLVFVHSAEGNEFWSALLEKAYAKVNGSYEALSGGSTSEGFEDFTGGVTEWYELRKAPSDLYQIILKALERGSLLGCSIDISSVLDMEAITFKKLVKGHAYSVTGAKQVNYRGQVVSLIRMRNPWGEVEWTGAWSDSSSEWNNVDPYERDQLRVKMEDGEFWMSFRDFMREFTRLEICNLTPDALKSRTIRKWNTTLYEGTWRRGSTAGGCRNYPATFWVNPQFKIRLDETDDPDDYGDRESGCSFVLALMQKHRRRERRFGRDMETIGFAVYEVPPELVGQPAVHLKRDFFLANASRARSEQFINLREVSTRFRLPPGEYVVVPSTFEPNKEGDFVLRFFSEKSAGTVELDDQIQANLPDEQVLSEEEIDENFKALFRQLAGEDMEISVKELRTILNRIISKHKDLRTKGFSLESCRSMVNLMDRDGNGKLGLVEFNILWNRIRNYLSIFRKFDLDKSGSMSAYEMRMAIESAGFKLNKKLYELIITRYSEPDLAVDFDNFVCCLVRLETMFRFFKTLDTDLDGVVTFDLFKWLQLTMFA
T1 sequence (P04632 1-268 partner): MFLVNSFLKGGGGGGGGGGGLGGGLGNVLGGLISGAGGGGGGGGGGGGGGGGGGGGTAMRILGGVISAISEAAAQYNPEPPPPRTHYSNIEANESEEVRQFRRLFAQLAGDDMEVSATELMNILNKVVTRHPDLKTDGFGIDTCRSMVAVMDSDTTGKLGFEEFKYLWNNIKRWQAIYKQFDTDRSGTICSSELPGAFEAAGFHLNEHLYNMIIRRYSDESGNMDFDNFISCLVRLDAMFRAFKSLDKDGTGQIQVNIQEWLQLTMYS
Protocol: The fluorescence assays of Compound 19 and Compound 16 with time were performed. Specifically, 17.4 U/mL of calpain-1 and 5 mM CaCl2 were added to a 50 mM TRIS buffer (pH: 7.4, 2 mM EGTA, 2 mM DTE) containing 10 μM of each of the synthesized fluorescent probes to perform an enzyme reaction at 37° C. Each of the compounds to which calpain-1 and CaCl2 were not added was similarly subjected as a negative control to the measurement.
The fluorescence assays of Compounds 16 to 36 were similarly performed. 50 Units per milliliter (Compounds 16 and 19 to 25) or 17.4 U/mL (Compounds 16 to 18 and 26 to 36) of calpain-1 and 5 mM CaCl2 were added to a 50 mM TRIS buffer (pH: 7.4, 2 mM EGTA, 2 mM DTE) containing 10 μM of each of the synthesized fluorescent probes to perform an enzyme reaction at 37° C.
Next, similar fluorescence assays of Compounds 37, 42, 45, 48, 51, 53, 55, 57, and 59 with calpain-1 were performed. Specifically, 17.4 U/mL of calpain-1 and 5 mM CaCl2 were added to a 50 mM TRIS buffer (pH: 7.4, 2 mM EGTA, 2 mM DTE) containing 10 μM of each of the synthesized fluorescent probes to perform an enzyme reaction at 37° C. Each of the compounds to which calpain-1 was not added was used as a control.
To evaluate an influence of a R^12-L-O— group on the reactivity of each of compounds having the same amino acids with calpain-1, the fluorescence assays of Compounds 37 to 66 with calpain-1 were performed in accordance with the above-mentioned method. Specifically, 17.4 U/mL of calpain-1 and 5 mM CaCl2 were added to a 50 mM TRIS buffer (pH: 7.4, 2 mM EGTA, 2 mM DTE) containing 10 μM of each of the synthesized fluorescent probes to perform an enzyme reaction at 37° C., followed by the measurement of an increase in fluorescence intensity of each of the compounds 10 minutes after the addition of calpain-1.

calpain = test: Rabbit NMDA injury model, ocular fundus imaging; type: in vivo; conditions: for staining of nerve cells with HMRG in ocular fundus: 30, 45 and 60 minutes after probe into the eye (Compound 19 18.3 μM 19 μL; Compound 16 20 μM 19 μl or 38 μl)
Protocol: Black Dutch rabbits were each subjected to general anesthesia with a mixed liquid of ketamine and xylazine. N-Methyl-D-aspartate (NMDA) (12 mM, 50 μL) or PBS was administered into an eye of the rabbit. 9 Hours after that, the rabbit was anesthetized with a mixed liquid of ketamine and xylazine again, and Compound 19 (18.3 μM, 19 μL), Compound 16 (20 μM, 19 μl), or Compound 16 (20 μM, 38 μl) was administered into the eye. Images of an ocular fundus were taken with Mirante (a confocal scanning diode laser ophthalmoscope manufactured by Nidek Co., Ltd.) before the administration of each of the compounds and after the lapse of a predetermined time from the administration.

Structure (SMILES)	calpain activity imaging in SH-SY5Y cells (SH-SY5Y cells)	change in fluorescence intensity with time by calpain-1 ([1]; FIG. 4)	number of HMRG-positive cells in PBS rabbits compared to NMDA rabbits (calpain; Compound 19 (19 μL) and Compound 16 (38 μl), FIG. 23)	staining of nerve cells with HMRG in ocular fundus (calpain; rabbits administered NMDA (12 mM, 50 μL))	staining of nerve cells with HMRG in ocular fundus (calpain; rabbits administered PBS)	increase in fluorescence intensity 10 minutes after the addition of calpain-1 [1]
CSCC[C@H](NC(=O)[C@H](CC(C)C)NC(C)=O)C(=O)Nc1ccc2c(c1)Oc1cc(N)ccc1C21OCc2ccccc21 (stereo partly shown) [Compound 16, reference compound]	enabled the observation of calpain activity in the SH-SY5Y cells	functioned as a fluorescent probe for calpain-1	significantly reduced	many nerve cells were clearly stained with HMRG	substantially no staining of the nerve cells with HMRG	–
CCC(=O)N[C@@H](CC(C)C)C(=O)N[C@@H](CCSC)C(=O)Nc1ccc2c(c1)Oc1cc(N)ccc1C21OCc2ccccc21 (stereo partly shown) [Compound 17]	–	–	–	–	–	reduced in fluorescence intensity as compared to Compound 16
CCCC(=O)N[C@@H](CC(C)C)C(=O)N[C@@H](CCSC)C(=O)Nc1ccc2c(c1)Oc1cc(N)ccc1C21OCc2ccccc21 (stereo partly shown) [Compound 18]	–	–	–	–	–	reduced in fluorescence intensity as compared to Compound 16
